Source: publication PMC12454493, “Insight on novel sulfamoylphenyl pyrazole derivatives as anticancer carbonic anhydrase inhibitors” (Molecular Diversity, 2024)

How the values were obtained:
Assay type in all cases: cell-based
K-562 = experiment: NCI-60 one-dose SRB screen (Leukemia); conditions: Homo sapiens, K562, single dose 10 µM, 48 h, read-out: Growth inhibition percent (GI %)
Procedure: (§1) The National Cancer Institute (NCI) Developmental Therapeutic Program (www.dtp.nci.nih.gov) selected the 20 novel synthesized compounds 4a-e, 5a-e, 6a-c, 9a-e, 10 and 11 to test for their anticancer activity at a single dose of 10 µM using SRB assay. […] Supplementary Data S3; Table S1 presents the detailed screening results of the most promising compounds. The preliminary screening’s detailed results for the remaining compounds are elucidated in the (Supplementary Data S3; Table S2).
(§2) The guidelines of the Drug Evaluation Branch’s protocol at the NCI in Bethesda served as the basis for the in vitro anticancer screening assays. at one dose 10 µM against a panel of 60 cancer cell lines. The human tumor cell lines used belonged to nine panels: leukemia, melanoma, lung, colon, CNS, ovarian, renal, prostate and breast cancers using the sulforhodamine B (SRB) assay in a 48 h drug exposure protocol.

CCRF-CEM = experiment: NCI-60 one-dose SRB screen (Leukemia); conditions: Homo sapiens, single dose 10 µM, 48 h, read-out: Growth inhibition percent (GI %)
Procedure: as §1, §2

MOLT-4 = experiment: NCI-60 one-dose SRB screen (Leukemia); conditions: Homo sapiens, single dose 10 µM, 48 h, read-out: Growth inhibition percent (GI %)
Procedure: as §1, §2

HL-60(TB) = experiment: NCI-60 one-dose SRB screen (Leukemia); conditions: Homo sapiens, single dose 10 µM, 48 h, read-out: Growth inhibition percent (GI %)
Procedure: as §1, §2

RPMI-8226 = experiment: NCI-60 one-dose SRB screen (Leukemia); conditions: Homo sapiens, single dose 10 µM, 48 h, read-out: Growth inhibition percent (GI %)
Procedure: as §1, §2

SR = experiment: NCI-60 one-dose SRB screen (Leukemia); conditions: Homo sapiens, single dose 10 µM, 48 h, read-out: Growth inhibition percent (GI %)
Procedure: as §1, §2

U251 = experiment: NCI-60 one-dose SRB screen (CNS Cancer); conditions: Homo sapiens, U-251, single dose 10 µM, 48 h, read-out: Growth inhibition percent (GI %)
Procedure: as §1, §2

SF-539 = experiment: NCI-60 one-dose SRB screen (CNS Cancer); conditions: Homo sapiens, single dose 10 µM, 48 h, read-out: Growth inhibition percent (GI %)
Procedure: as §1, §2

SF-268 = experiment: NCI-60 one-dose SRB screen (CNS Cancer); conditions: Homo sapiens, single dose 10 µM, 48 h, read-out: Growth inhibition percent (GI %)
Procedure: as §1, §2

SF-295 = experiment: NCI-60 one-dose SRB screen (CNS Cancer); conditions: Homo sapiens, single dose 10 µM, 48 h, read-out: Growth inhibition percent (GI %)
Procedure: as §1, §2

SNB-19 = experiment: NCI-60 one-dose SRB screen (CNS Cancer); conditions: Homo sapiens, single dose 10 µM, 48 h, read-out: Growth inhibition percent (GI %)
Procedure: as §1, §2

SNB-75 = experiment: NCI-60 one-dose SRB screen (CNS Cancer); conditions: Homo sapiens, single dose 10 µM, 48 h, read-out: Growth inhibition percent (GI %)
Procedure: as §1, §2

NCI-H460 = experiment: NCI-60 one-dose SRB screen (Non-Small Cell Lung Cancer); conditions: Homo sapiens, single dose 10 µM, 48 h, read-out: Growth inhibition percent (GI %)
Procedure: as §1, §2

NCI-H322M = experiment: as above; conditions: Homo sapiens, single dose 10 µM, 48 h, read-out: Growth inhibition percent (GI %)
Procedure: as §1, §2

NCI-H23 = experiment: as above; conditions: Homo sapiens, single dose 10 µM, 48 h, read-out: Growth inhibition percent (GI %)
Procedure: as §1, §2

HOP-92 = experiment: as above; conditions: Homo sapiens, single dose 10 µM, 48 h, read-out: Growth inhibition percent (GI %)
Procedure: as §1, §2

A549/ATCC = experiment: as above; conditions: Homo sapiens, single dose 10 µM, 48 h, read-out: Growth inhibition percent (GI %)
Procedure: as §1, §2

EKVX = experiment: as above; conditions: Homo sapiens, single dose 10 µM, 48 h, read-out: Growth inhibition percent (GI %)
Procedure: as §1, §2

NCI-H522 = experiment: as above; conditions: Homo sapiens, single dose 10 µM, 48 h, read-out: Growth inhibition percent (GI %)
Procedure: as §1, §2

HOP-62 = experiment: as above; conditions: Homo sapiens, single dose 10 µM, 48 h, read-out: Growth inhibition percent (GI %)
Procedure: as §1, §2

NCI-H226 = experiment: as above; conditions: Homo sapiens, single dose 10 µM, 48 h, read-out: Growth inhibition percent (GI %)
Procedure: as §1, §2

SK-OV-3 = experiment: NCI-60 one-dose SRB screen (Ovarian cancer); conditions: Homo sapiens, single dose 10 µM, 48 h, read-out: Growth inhibition percent (GI %)
Procedure: as §1, §2

OVCAR-5 = experiment: NCI-60 one-dose SRB screen (Ovarian cancer); conditions: Homo sapiens, single dose 10 µM, 48 h, read-out: Growth inhibition percent (GI %)
Procedure: as §1, §2

OVCAR-3 = experiment: NCI-60 one-dose SRB screen (Ovarian cancer); conditions: Homo sapiens, single dose 10 µM, 48 h, read-out: Growth inhibition percent (GI %)
Procedure: as §1, §2

OVCAR-4 = experiment: NCI-60 one-dose SRB screen (Ovarian cancer); conditions: Homo sapiens, single dose 10 µM, 48 h, read-out: Growth inhibition percent (GI %)
Procedure: as §1, §2

NCI/ADR-RES = experiment: NCI-60 one-dose SRB screen (Ovarian cancer); conditions: Homo sapiens, single dose 10 µM, 48 h, read-out: Growth inhibition percent (GI %)
Procedure: as §1, §2

IGROV1 = experiment: NCI-60 one-dose SRB screen (Ovarian cancer); conditions: Homo sapiens, IGROV-1, single dose 10 µM, 48 h, read-out: Growth inhibition percent (GI %)
Procedure: as §1, §2

OVCAR-8 = experiment: NCI-60 one-dose SRB screen (Ovarian cancer); conditions: Homo sapiens, single dose 10 µM, 48 h, read-out: Growth inhibition percent (GI %)
Procedure: as §1, §2

LOX IMVI = experiment: NCI-60 one-dose SRB screen (Melanoma); conditions: Homo sapiens, single dose 10 µM, 48 h, read-out: Growth inhibition percent (GI %)
Procedure: as §1, §2

MDA-MB-435 = experiment: NCI-60 one-dose SRB screen (Melanoma); conditions: Homo sapiens, single dose 10 µM, 48 h, read-out: Growth inhibition percent (GI %)
Procedure: as §1, §2

Q: Which inhibition at 10 µM (K-562) does the source give for `Cc1ccc(-c2nn(-c3ccc(S(N)(=O)=O)cc3)cc2C(=O)OCC(=O)Nc2ccc(S(N)(=O)=O)cc2)cc1` [Compound 4b, 2-Oxo-2-[(4-sulfamoylphenyl)amino] ethyl 1-(4-sulfamoylphenyl)-3-(p-tolyl)-1H-pyrazole-4-carboxylate] here?
A: 7.16%

Q: What about the inhibition at 10 µM (CCRF-CEM) of the same compound?
A: < 5%

Q: What about the inhibition at 10 µM (MOLT-4) of the same compound?
A: < 5%

Q: And the inhibition at 10 µM (HL-60(TB))?
A: 5.09%

Q: And the inhibition at 10 µM (RPMI-8226)?
A: < 5%

Q: What about the inhibition at 10 µM (SR) of the same compound?
A: 30.2%

Q: And the inhibition at 10 µM (U251)?
A: < 5%

Q: And the inhibition at 10 µM (SF-539)?
A: 20.3%

Q: What about the inhibition at 10 µM (SF-268) of the same compound?
A: 10.3%

Q: What about the inhibition at 10 µM (SF-295) of the same compound?
A: < 5%

Q: And the inhibition at 10 µM (SNB-19)?
A: < 5%

Q: And the inhibition at 10 µM (SNB-75)?
A: < 5%

Q: And the inhibition at 10 µM (NCI-H460)?
A: < 5%

Q: What about the inhibition at 10 µM (NCI-H322M) of the same compound?
A: 6.16%

Q: What about the inhibition at 10 µM (NCI-H23) of the same compound?
A: < 5%

Q: And the inhibition at 10 µM (HOP-92)?
A: < 5%

Q: What about the inhibition at 10 µM (A549/ATCC) of the same compound?
A: 7.63%

Q: What about the inhibition at 10 µM (EKVX) of the same compound?
A: < 5%

Q: And the inhibition at 10 µM (NCI-H522)?
A: 25.6%

Q: What about the inhibition at 10 µM (HOP-62) of the same compound?
A: < 5%

Q: What about the inhibition at 10 µM (NCI-H226) of the same compound?
A: < 5%

Q: What about the inhibition at 10 µM (SK-OV-3) of the same compound?
A: < 5%

Q: And the inhibition at 10 µM (OVCAR-5)?
A: 5.99%

Q: What about the inhibition at 10 µM (OVCAR-3) of the same compound?
A: < 5%

Q: And the inhibition at 10 µM (OVCAR-4)?
A: < 5%

Q: And the inhibition at 10 µM (NCI/ADR-RES)?
A: < 5%

Q: And the inhibition at 10 µM (IGROV1)?
A: < 5%

Q: And the inhibition at 10 µM (OVCAR-8)?
A: < 5%

Q: And the inhibition at 10 µM (LOX IMVI)?
A: < 5%

Q: And the inhibition at 10 µM (MDA-MB-435)?
A: < 5%
